Reference: patent publication US20160271114A1, “Composition for preventing or treating bacterial infectious disease comprising phospholipase D2 inhibitor” (RESEARCH & BUSINESS FOUNDATION SUNGKYUNKWAN UNIVERSITY, priority 2015, published 2016)

Assays:
GRK2 = experiment: LPS-induced GRK2 level in neutrophils (western blotting); assay type: cell-based, mice; settings: WT neutrophils, LPS 1 μg/ml; CAY10594 at 10 μM; FIG. 18B, FIG. 19
Procedure: First, neutrophils were isolated from the bone marrow of WT or PLD2 knockout (KO) mice and stimulated with 1 μg/ml of LPS for 1 hour, and then GRK2 levels were analyzed by western blotting.
Afterward, neutrophils isolated from the bone marrow of the WT mice were cultured with 10 μM of a vehicle (0.5% Tween 80 in PBS) or a PLD2 inhibitor (CAY10594) before being cultured with LPS (1 μg/ml), and then GRK2 levels were analyzed by western blotting.
The control of LPS-induced GRK2 expression by an inhibitor for an intracellular signaling pathway (BAY11-7082) was analyzed by western blotting.

CXCR2 = CXCR2 surface expression in LPS-stimulated neutrophils (flow cytometry); assay type: cell-based, mice; settings: WT neutrophils, LPS 1 μg/ml; FIG. 17D, FIG. 20A
[1] = system: neutrophils isolated from the bone marrow of WT mice; experiment: CXCL2-induced chemotactic migration of LPS-stimulated neutrophils; assay type: cell-based; settings: LPS 1 μg/ml, FIG. 20B
WT neutrophils = experiment: Ionomycin-induced intracellular calcium mobilization (Fura-2/AM); assay type: cell-based, mice; settings: 10 μM before 5 μM ionomycin, FIG. 15
Procedure: Subsequently, for individual analysis, the cells were aliquoted (2×10^6 cells/1 ml of Locke's solution containing 154 mM NaCl, 5.6 mM KCl, 1.2 mM MgCl2, 5 mM HEPES [pH 7.3], 10 mM glucose, and 2 mM CaCl2). Afterward, the cells were stimulated with 5 μM ionomycin. Meanwhile, to check the case of the treatment with a PLD2 inhibitor, the cells aliquoted from the WT mouse were cultured with 10 μM of a vehicle (0.5% Tween 80 in PBS) or a PLD2 inhibitor (CAY10594) before being stimulated with ionomycin. A fluorescence change at an emission wavelength of 500 nm was measured using an RF-5301PC spectrofluorophotometer (Shimadzu Instruments Inc., Kyoto, Japan) at excitation wavelengths of 340 nm and 380 nm A [Ca^2+]i increase causes an increase in the fluorescence ratio at an excitation efficiency of 340 to 380 nm, and [Ca^2+]i was calculated using the fluorescence ratio according to Equation 5 of Grynkiewicz et al (Grynkiewicz et al., 1985).

CLP mice = experiment: Survival rate in CLP-induced sepsis models, WT mice; assay type: in vivo; settings: WT mice after CLP surgery; 10 mg/kg subcutaneous at 2, 14, 26 and 38 hours; monitored for 10 days; FIG. 1B
Procedure: (§1) C57Bl/6 mice were obtained from Orient Bio (Seongnam, Korea). PLD2 knockout (KO) mice were prepared by the method described in a previous study (Ghim, J., J. S. Moon, C. S. Lee, J. Lee, P. Song, A. Lee, J. H. Jang, D. Kim, J. H. Yoon, Y. J. Koh, C. Chelakkot, B. J. Kang, J. M. Kim, K. L. Kim, Y. R. Yang, Y. Kim, S. H. Kim, D. Hwang, P. G. Suh, G. Y. Koh, Y. Y. Kong, and S. H. Ryu, 2014, “Endothelial deletion of phospholipase D2 reduces hypoxic response and pathological angiogenesis,” Arterioscler. Thromb. Vasc. Biol., 34:1697-1703.) All experiments involving animals received the approval of the Institutional Review Committee for Animal Care and Use at the medical school of Sungkyunkwan University. Cecal ligation and puncture (CLP) sepsis models were prepared by the method described in a previous study (Kim, S. D., H. Y. Lee, J. W. Shim, H. J. Kim, Y. H. Yoo, J. S. Park, S. H. Baek, B. A. Zabel, and Y. S. Bae, 2011, “Activation of CXCR2 by extracellular matrix degradation product acetylated Pro-Gly-Pro has therapeutic effects against sepsis,” Am. J. Respir. Crit. Care Med., 184:243-251.) That is, mice were anesthetized with 50 mg/kg of Zoletil and 10 mg/kg of Rompun through intraperitoneal injection, and an abdominal midline incision was made to expose the cecum. […]

[2] = system: spleen cells isolated from the WT mice; experiment: LPS-induced inflammatory cytokine/chemokine production in spleen cells (ELISA); assay type: cell-based; settings: 10 μM for 30 minutes before LPS (1 μg/ml) for 24 hours; compared with vehicle; FIG. 5B
Procedure: Spleen cells (3×10^6 cells/0.3 ml) isolated from WT or PLD2 knockout (KO) mice were cultured in RPMI 1640 medium containing 5% fetal bovine serum (FBS) in 96-well plates and placed in a 5% CO2 incubator at 37° C. Afterward, the spleen cells were incubated with LPS (1 μg/ml) for 24 hours, and the expression of cytokines and chemokines in the spleen cells was measured by ELISA (e-Bioscience, San Diego, Calif.).
Additionally, to examine the effect of a PLD2 inhibitor on cytokine and chemokine production, before additional culturing with LPS (1 μg/ml) for 24 hours, the spleen cells isolated from the WT mice were cultured with 10 μM of a vehicle (0.5% Tween 80 in PBS) or a PLD2 inhibitor (CAY10594) for 30 minutes. A cell-free supernatant was collected and centrifuged, and the cytokines and the chemokines were detected by ELISA (e-Bioscience, San Diego, Calif.) according to the manufacturer's instructions.

[3] = system: neutrophils isolated from the bone marrow of the WT mice; experiment: NET formation in ionomycin-stimulated neutrophils (SYTOX Green staining); assay type: cell-based; settings: 10 μM, then 5 μM ionomycin, FIG. 10B
Procedure: Neutrophils were isolated from the bone marrow of the WT or PLD2 knockout (KO) mice. More particularly, bone marrow cells were isolated from a femur and a tibia using an HBSS-EDTA solvent. A cell suspension was centrifuged at 400 g for 10 minutes, resuspended cells were loaded onto 52%, 69%, and 78% Percoll gradients, and centrifuged at 1500 g for 30 minutes without breaking. The cells were isolated on a 69%/78% interface layer, and RBCs were removed by hypotonic lysis. 95% or more of the isolated cells were identified to be Ly6G-positive using a flow cytometer. The isolated neutrophils (1×10^5 cells) were seeded on 0.001% poly-lysine-coated 12-mm cover slips of 24-well plates, and stimulated with 5 μM ionomycin. Afterward, the cells were fixed with 4% paraformaldehyde and stained by SYTOX Green nucleic acid staining (5 μM). The NET was visualized using a Zeiss Axiovert fluorescent microscope (Zeiss, Oberkochen, Germany), and images were taken by a Nikon Digital camera.
Additionally, to confirm the variations of NET formation when a PLD2 inhibitor was treated, neutrophils isolated from the bone marrow of the WT mice were cultured with 10 μM of a vehicle (0.5% Tween 80 in PBS) or a PLD2 inhibitor (CAY10594), and then stimulated with 5 μM ionomycin.

PLD2 knockout (KO) mice = experiment: Survival rate of PLD2 knockout (KO) mice after CLP surgery with CXCR2 antagonist treatment; assay type: in vivo; settings: treated with the CXCR2 antagonist, FIG. 21
Procedure: as §1

## Cc1ccc(S(=O)(=O)/C=C/C#N)cc1 [BAY11-7082]
GRK2
  upregulation of LPS-induced GRK2 / LPS-induced GRK2 expression: completely inhibited
CXCR2
  downregulation of LPS-induced CXCR2: significantly diminished
[1]
  CXCL2-induced chemotactic migration of the neutrophils by LPS stimulation: partially but significantly recovered

## O=C(NCCN1CCC2(CC1)C(=O)NCN2c1ccccc1)c1ccc2ccccc2c1 [CAY10594, N-[2-(4-oxo-1-phenyl-1,3,8-triazaspiro[4,5]decan-8-yl)ethyl]-2-naphthalenecarboxamide]
WT neutrophils
  ionomycin-induced intracellular calcium mobilization: improved
GRK2
  upregulation of LPS-induced GRK2 / LPS-induced GRK2 expression: blocked
CLP mice
  survival rate: 40%
CXCR2
  downregulation of LPS-induced CXCR2: recovered
[2]
  CCL5 secretion: considerably decreased
  CXCL1 secretion: considerably decreased
  IL-1β secretion: considerably decreased
  IL-6 secretion: considerably decreased
  TNF-α secretion: considerably decreased
[3]
  NET formation caused by ionomycin stimulation: increased

## O=C(Nc1ccc([N+](=O)[O-])cc1O)Nc1ccccc1Br [SB225002]
PLD2 knockout (KO) mice
  survival of PLD2 knockout (KO) mice after CLP surgery: all of the mice died
